PMC4289655 (Antiviral Research, 2014)

Molecular target: T1, UL98 (CMV alkaline nuclease) (Human herpesvirus 5 strain AD169, UniProt P16789)
T1 sequence (P16789 1-584): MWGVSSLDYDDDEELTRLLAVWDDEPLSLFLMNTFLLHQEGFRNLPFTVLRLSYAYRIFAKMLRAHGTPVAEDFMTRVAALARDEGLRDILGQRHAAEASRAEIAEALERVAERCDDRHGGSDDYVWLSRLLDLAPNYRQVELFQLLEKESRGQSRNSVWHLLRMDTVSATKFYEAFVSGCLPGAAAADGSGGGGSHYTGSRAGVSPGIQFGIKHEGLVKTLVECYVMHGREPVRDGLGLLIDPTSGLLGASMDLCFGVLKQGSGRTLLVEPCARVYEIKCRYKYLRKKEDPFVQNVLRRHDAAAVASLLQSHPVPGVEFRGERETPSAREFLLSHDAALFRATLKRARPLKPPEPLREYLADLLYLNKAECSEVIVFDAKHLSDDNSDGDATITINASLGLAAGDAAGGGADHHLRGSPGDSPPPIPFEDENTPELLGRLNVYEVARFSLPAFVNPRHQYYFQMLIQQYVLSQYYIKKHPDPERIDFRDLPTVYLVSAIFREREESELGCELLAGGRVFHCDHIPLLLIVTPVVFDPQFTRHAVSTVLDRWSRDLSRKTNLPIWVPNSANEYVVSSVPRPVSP
Assay: TCA-soluble […] release from labeled E. coli duplex DNA
Type: biochemical

SMILES	IC50 [µM]
CC(=O)Nc1ccc(Nc2cc(S(=O)(=O)O)c(N)c3c2C(=O)c2ccccc2C3=O)cc1 [acid blue 40]	99
Cc1cc(C)c(Nc2cc(S(=O)(=O)O)c(N)c3c2C(=O)c2ccccc2C3=O)c(C)c1 [atanyl blue PRL]	4.5 ± 0.7
